# What was measured:
# [1] = tested on: brains, heart, liver, muscle, and DRG of the NHPs; assay: Maturation of TTM-001 and TTM-002 capsids, NGS enrichment in NHP tissues; format: in vivo; conditions: relative to AAV9 control
# Outline: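 Variants carry mutations within and flanking the loop IV peptide insert: positions 450–466 were triplet-randomized, while positions 449–466 received low-frequency point mutations. The combined pool went into two NHPs, and each peptide was scored by NGS enrichment ratio against AAV9.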
# brain = assay: Matured TTM-001 and TTM-002 variants, NGS enrichment in mouse brain; format: in vivo, mice; conditions: relative to AAV9 control
# [2] = NGS fold-enrichment of matured AAV capsid variants, NHP brain, RNA
# [3] = NGS fold-enrichment, DRG of NHPs
# [4] = NGS fold-enrichment, RNA, brain of NHPs
# [5] = NGS fold-enrichment, heart of NHPs
# [6] = NGS fold-enrichment, liver DNA of NHPs
# [7] = NGS fold-enrichment, liver RNA of NHPs
# [8] = NGS fold-enrichment, muscle of NHPs
# [9] = NGS fold-enrichment, brain of mice
# [10] = NGS fold-enrichment of RNA, NHP brain
# [11] = NGS fold-enrichment, NHP liver DNA
# [12] = NGS fold-enrichment, NHP liver RNA
# [13] = NGS fold-enrichment, NHP muscle
# [14] = NGS fold-enrichment, mouse brain
Sequence,"Fold Enrichment relative to AAV9, Brain (NHP) [1, 2] [fold]","Fold Enrichment relative to AAV9, DRG (NHP) ([1]; NHP DRG) [fold]","Fold Enrichment relative to AAV9, Heart (NHP) ([1]; NHP heart) [fold]","Fold Enrichment relative to AAV9, Liver DNA (NHP) ([1]; NHP liver, DNA) [fold]","Fold Enrichment relative to AAV9, Liver RNA (NHP) ([1]; NHP liver, RNA) [fold]","Fold Enrichment relative to AAV9, Muscle (NHP) ([1]; NHP muscle) [fold]","Fold Enrichment relative to AAV9, Brain (Mouse) (brain; mouse brain) [fold]","Fold Enrichment relative to AAV9, DRG (NHP) [1, 3] [fold]","Fold Enrichment relative to AAV9, Brain (NHP) [1, 4] [fold]","Fold Enrichment relative to AAV9, Heart (NHP) [1, 5] [fold]","Fold Enrichment relative to AAV9, Liver DNA (NHP) [1, 6] [fold]","Fold Enrichment relative to AAV9, Liver RNA (NHP) [1, 7] [fold]","Fold Enrichment relative to AAV9, Muscle (NHP) [1, 8] [fold]","Fold Enrichment relative to AAV9, Brain (Mouse) (brain; [9]) [fold]","Fold Enrichment relative to AAV9, Brain (NHP) [1, 10] [fold]","Fold Enrichment relative to AAV9, DRG (NHP) ([1]; NGS fold-enrichment, NHP DRG) [fold]","Fold Enrichment relative to AAV9, Heart (NHP) ([1]; NGS fold-enrichment, NHP heart) [fold]","Fold Enrichment relative to AAV9, Liver DNA (NHP) [1, 11] [fold]","Fold Enrichment relative to AAV9, Liver RNA (NHP) [1, 12] [fold]","Fold Enrichment relative to AAV9, Muscle (NHP) [1, 13] [fold]",further results
KTINGSGSPHSKAPGQQT,54.071,0.065,0.000,0.179,0.542,0.004,73.440,–,–,–,–,–,–,–,–,–,–,–,–,–,–
KEVHGSGSPHSKAQNQQT,–,–,–,–,–,–,–,0.000,67.901,0.000,0.000,0.727,0.000,100.111,–,–,–,–,–,–,–
KTLNGNGSPHSKAQNLQT,54.458,0.668,0.000,0.172,0.161,0.000,159.134,–,–,–,–,–,–,–,–,–,–,–,–,–,–
KTINGSGSPHSKAQHRIT,–,–,–,–,–,–,–,0.105,76.849,0.499,0.214,1.424,0.170,127.000,76.849,0.105,0.499,0.214,1.424,0.170,"Fold Enrichment relative to AAV9, Brain (Mouse) (brain; [14]): 127.000 fold"
KTENISGSPHSKAQNQQT,–,–,–,–,–,–,–,0.000,76.072,0.000,0.132,0.115,0.000,83.118,76.072,0.000,0.000,0.132,0.115,0.000,"Fold Enrichment relative to AAV9, Brain (Mouse) (brain; [14]): 83.118 fold"
KTINGSGSPHSKAQGQQA,–,–,–,–,–,–,–,0.000,64.128,0.185,0.195,0.063,0.000,64.116,–,–,–,–,–,–,–
KTSNGSGSPHSKAQNQST,53.353,0.000,0.000,0.014,0.000,0.000,120.897,–,–,–,–,–,–,–,–,–,–,–,–,–,–
KAINGHDSPHKSGQIRQT,–,–,–,–,–,–,–,–,–,–,–,–,–,–,108.510,0.000,23.908,0.261,0.132,0.000,"Fold Enrichment relative to AAV9, Brain (Mouse) (brain; [14]): 8.862 fold"
KTINGSGSPHSKTQNHQN,55.551,0.000,0.048,0.099,0.000,0.000,64.846,–,–,–,–,–,–,–,–,–,–,–,–,–,–
KTEPMSGSPHSKAQNQQT,50.960,0.203,0.000,0.415,1.816,0.000,126.322,–,–,–,–,–,–,–,–,–,–,–,–,–,–
KTVNGSGSPHSKAQDKQT,51.580,0.428,0.000,0.063,0.041,0.069,69.225,–,–,–,–,–,–,–,–,–,–,–,–,–,–
KTITGSGSPHSKAQTQLT,–,–,–,–,–,–,–,0.160,60.846,8.992,0.000,0.000,0.000,55.640,–,–,–,–,–,–,–
KTINGSGSPHSKAQYSVT,57.130,0.000,0.093,0.302,1.235,0.000,60.023,–,–,–,–,–,–,–,–,–,–,–,–,–,–
KTINGQDSPHKSGQHQQA,–,–,–,–,–,–,–,–,–,–,–,–,–,–,85.657,1.127,0.579,0.557,0.193,0.000,"Fold Enrichment relative to AAV9, Brain (Mouse) (brain; [14]): 5.582 fold"
KAEMGSGSPHSKAQNQQT,–,–,–,–,–,–,–,0.000,83.049,0.020,0.112,0.768,0.000,135.019,83.049,0.000,0.020,0.112,0.768,0.000,"Fold Enrichment relative to AAV9, Brain (Mouse) (brain; [14]): 135.019 fold"
KTINGSGSPHSKAQLPST,56.238,0.005,4.258,0.185,1.040,0.001,84.918,–,–,–,–,–,–,–,–,–,–,–,–,–,–
